Measurements: publication PMC8213057, “Targeting ALK2: An Open Science Approach to Developing Therapeutics for the Treatment of Diffuse Intrinsic Pontine Glioma” (Journal of Medicinal Chemistry, 2020)
Values joined by “and” are separate entries in the source; they are usually repeats but may differ in a detail not shown here. Identical values can stand only once.

Assays:
[1] = tested on: FMS
[2] = target: CK1g1 (Homo sapiens, UniProt Q9HCP0); conditions: 1 μM; Run 1, Run 2
[3] = target: CLK2 (Homo sapiens, UniProt P49760); conditions: 1 μM; Run 1, Run 2
[4] = target: T1, STK22D/TSSK1 (Homo sapiens, UniProt Q9BXA7); conditions: 1 μM; Run 1, Run 2
T1 sequence (Q9BXA7 1-367): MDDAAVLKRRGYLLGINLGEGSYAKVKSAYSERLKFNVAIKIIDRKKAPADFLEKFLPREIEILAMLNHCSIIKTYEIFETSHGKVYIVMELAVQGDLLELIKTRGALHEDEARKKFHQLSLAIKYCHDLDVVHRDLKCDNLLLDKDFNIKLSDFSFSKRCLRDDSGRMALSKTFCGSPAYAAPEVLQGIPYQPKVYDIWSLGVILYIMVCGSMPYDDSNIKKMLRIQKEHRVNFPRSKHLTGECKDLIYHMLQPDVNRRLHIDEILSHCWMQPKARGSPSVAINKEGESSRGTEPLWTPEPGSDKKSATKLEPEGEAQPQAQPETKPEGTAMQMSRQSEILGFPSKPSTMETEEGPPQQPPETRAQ

[5] = target: T2, c-MER (Homo sapiens, UniProt Q12866); experiment: biochemical; conditions: read-out: % enzyme activity, 1 μM; Run 1, Run 2
T2 sequence (Q12866 21-999): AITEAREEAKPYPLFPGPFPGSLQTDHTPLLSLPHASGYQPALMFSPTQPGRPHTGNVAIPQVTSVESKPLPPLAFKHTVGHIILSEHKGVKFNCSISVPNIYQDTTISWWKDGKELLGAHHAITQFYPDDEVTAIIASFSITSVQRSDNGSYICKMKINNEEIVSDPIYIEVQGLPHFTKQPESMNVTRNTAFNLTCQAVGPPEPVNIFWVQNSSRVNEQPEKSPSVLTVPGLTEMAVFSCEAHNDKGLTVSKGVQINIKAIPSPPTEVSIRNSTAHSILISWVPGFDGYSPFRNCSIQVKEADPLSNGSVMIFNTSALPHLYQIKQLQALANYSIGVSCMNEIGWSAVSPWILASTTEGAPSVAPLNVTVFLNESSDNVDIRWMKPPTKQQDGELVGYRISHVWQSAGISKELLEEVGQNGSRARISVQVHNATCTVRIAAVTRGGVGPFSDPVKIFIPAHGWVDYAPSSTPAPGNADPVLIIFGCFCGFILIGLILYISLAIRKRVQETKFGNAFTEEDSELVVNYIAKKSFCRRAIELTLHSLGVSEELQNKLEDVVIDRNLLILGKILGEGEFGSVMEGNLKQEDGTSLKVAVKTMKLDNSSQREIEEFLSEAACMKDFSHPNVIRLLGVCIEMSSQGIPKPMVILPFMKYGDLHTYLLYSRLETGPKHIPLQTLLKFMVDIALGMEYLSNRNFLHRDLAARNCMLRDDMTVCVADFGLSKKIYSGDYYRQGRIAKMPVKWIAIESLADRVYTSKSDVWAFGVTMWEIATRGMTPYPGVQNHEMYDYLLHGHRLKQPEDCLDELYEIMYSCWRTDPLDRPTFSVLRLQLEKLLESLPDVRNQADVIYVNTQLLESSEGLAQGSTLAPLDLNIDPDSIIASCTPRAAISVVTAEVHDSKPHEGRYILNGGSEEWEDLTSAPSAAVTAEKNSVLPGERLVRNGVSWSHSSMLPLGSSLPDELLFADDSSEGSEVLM

[6] = target: COT1/MAP3K8 (Homo sapiens, UniProt P41279); experiment: biochemical; conditions: read-out: % enzyme activity, 1 μM; Run 1, Run 2
[7] = target: T3, CTK/MATK (Homo sapiens, UniProt P42679); experiment: biochemical; conditions: read-out: % enzyme activity, 1 μM; Run 1, Run 2
T3 sequence (P42679 1-507): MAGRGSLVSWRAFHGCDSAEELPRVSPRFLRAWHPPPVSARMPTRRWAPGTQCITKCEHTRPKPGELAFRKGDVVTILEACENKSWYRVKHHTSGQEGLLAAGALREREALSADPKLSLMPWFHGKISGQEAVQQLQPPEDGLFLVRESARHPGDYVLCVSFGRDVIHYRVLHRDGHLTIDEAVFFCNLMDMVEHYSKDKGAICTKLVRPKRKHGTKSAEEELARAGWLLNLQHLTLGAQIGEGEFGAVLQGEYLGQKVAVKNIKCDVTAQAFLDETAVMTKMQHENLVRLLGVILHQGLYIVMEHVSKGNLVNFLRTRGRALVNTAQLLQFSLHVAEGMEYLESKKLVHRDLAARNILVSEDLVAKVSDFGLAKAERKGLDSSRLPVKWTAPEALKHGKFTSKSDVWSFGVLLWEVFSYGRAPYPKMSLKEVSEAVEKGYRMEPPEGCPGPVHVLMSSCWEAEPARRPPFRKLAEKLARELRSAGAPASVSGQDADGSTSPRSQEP

[8] = target: STK32B/YANK2 (Homo sapiens, UniProt Q9NY57); experiment: biochemical; conditions: read-out: % enzyme activity, 1 μM; Run 1, Run 2
Chain of STK32B/YANK2 (Q9NY57 whole entry): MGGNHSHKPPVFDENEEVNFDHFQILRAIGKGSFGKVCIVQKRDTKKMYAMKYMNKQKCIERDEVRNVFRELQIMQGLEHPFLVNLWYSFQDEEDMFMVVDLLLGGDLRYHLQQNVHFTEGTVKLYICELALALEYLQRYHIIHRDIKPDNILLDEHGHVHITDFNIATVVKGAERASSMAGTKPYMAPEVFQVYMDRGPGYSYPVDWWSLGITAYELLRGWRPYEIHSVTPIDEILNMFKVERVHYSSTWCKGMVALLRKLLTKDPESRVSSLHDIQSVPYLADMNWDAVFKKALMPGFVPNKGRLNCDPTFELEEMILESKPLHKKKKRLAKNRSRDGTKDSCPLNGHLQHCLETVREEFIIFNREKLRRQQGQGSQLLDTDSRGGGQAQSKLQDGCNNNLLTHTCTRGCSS

Chain of CK1g1 (Q9HCP0 whole entry): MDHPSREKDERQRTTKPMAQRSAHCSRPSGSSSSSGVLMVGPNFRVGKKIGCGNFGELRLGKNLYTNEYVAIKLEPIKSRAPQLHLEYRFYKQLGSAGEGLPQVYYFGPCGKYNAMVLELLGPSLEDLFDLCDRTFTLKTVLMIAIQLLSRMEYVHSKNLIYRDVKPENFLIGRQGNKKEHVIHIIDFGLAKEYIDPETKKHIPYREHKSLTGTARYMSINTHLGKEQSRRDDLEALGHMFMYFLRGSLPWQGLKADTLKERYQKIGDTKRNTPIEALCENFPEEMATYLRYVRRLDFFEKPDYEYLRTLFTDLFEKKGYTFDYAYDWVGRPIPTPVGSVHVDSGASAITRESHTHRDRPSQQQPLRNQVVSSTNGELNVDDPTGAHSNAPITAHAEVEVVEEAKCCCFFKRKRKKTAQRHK
Chain of CLK2 (P49760 whole entry): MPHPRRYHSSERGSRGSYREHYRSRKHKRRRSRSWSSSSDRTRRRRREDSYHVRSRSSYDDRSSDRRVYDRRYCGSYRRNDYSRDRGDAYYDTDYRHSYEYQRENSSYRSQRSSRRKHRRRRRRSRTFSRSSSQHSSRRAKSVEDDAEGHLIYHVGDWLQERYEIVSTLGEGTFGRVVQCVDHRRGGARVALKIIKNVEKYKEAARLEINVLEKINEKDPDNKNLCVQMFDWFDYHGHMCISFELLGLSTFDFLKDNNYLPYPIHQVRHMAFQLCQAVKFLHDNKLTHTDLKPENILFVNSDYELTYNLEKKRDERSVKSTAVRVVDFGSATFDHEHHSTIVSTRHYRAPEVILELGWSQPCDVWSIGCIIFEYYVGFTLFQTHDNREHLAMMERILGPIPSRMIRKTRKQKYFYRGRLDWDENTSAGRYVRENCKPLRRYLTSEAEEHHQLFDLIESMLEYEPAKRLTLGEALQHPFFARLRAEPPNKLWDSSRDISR
Chain of COT1/MAP3K8 (P41279 whole entry): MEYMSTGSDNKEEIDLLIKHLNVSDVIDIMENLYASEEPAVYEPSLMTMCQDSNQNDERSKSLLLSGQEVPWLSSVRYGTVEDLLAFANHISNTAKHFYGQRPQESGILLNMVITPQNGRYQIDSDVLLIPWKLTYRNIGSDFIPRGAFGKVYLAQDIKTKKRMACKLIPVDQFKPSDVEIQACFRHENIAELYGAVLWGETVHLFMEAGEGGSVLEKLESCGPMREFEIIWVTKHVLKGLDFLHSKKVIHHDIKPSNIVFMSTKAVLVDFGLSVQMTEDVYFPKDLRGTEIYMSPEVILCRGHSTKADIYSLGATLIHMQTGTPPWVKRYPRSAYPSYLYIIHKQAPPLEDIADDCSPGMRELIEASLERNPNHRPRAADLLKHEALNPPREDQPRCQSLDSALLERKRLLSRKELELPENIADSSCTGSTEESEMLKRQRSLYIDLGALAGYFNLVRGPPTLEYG

SMILES	% enzyme activity at 1 μM [1]	% enzyme activity [2] [%]	% enzyme activity [3] [%]	% enzyme activity [4] [%]	remaining activity at 1 µM [5] [%]	remaining activity at 1 µM [6] [%]	remaining activity at 1 µM [7] [%]	remaining activity at 1 µM [8] [%]
COc1cc(-c2cncc(-c3ccc(N4CCN(C)CC4)cc3)c2C)cc(F)c1C(N)=O [Compound 26a, 2-Fluoro-6-methoxy-4-(4-methyl-5-(4-(4-methylpiperazin-1-yl)phenyl)pyridin-3-yl)benzamide]	82.2% and 75.7%	55.41	91.71	97.01	100	88.7	95.2	87.6
COc1cc(-c2cncc(-c3ccc(N4C[C@@H](C)N(C)[C@@H](C)C4)cc3)c2C)cc(F)c1C(N)=O [Compound 26c, 2-Fluoro-6-methoxy-4-(4-methyl-5-(4-((3R,5S)-3,4,5-trimethylpiperazin-1-yl)phenyl)pyridin-3-yl)benzamide]	79.5% and 78.8%	69.61	85.73	99.16	101	92.9	99.2	98.2
